PubChem BioAssay (NCI)
Several values for one entry are separate records, joined by “and”; a condition that tells them apart may be missing. Identical values can stand only once.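 Cells were grown in 96-well plates and exposed to each compound for 48 hours at five concentrations; endpoints were interpolated linearly between bracketing concentrations, or set to the highest concentration if not reached. The concentration for 50% growth inhibition is given as GI50. At the TGI there is no net growth.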

Assays:
Assay in all cases: NCI-60 cell line screen, 48 h
K-562 leukemia = tested on: K-562 leukemia
ACHN renal = tested on: ACHN renal
A498 renal = tested on: A498 renal
SK-MEL-5 melanoma = tested on: SK-MEL-5 melanoma
T-47D breast = tested on: T-47D breast
OVCAR-3 ovarian = tested on: OVCAR-3 ovarian
NCI/ADR-RES ovarian = tested on: NCI/ADR-RES ovarian
IGROV1 ovarian = tested on: IGROV1 ovarian
SK-OV-3 ovarian = tested on: SK-OV-3 ovarian
LOX IMVI melanoma = tested on: LOX IMVI melanoma
RPMI-8226 leukemia = tested on: RPMI-8226 leukemia
786-0 renal = tested on: 786-0 renal
COLO 205 colon = tested on: COLO 205 colon
SF-295 CNS = tested on: SF-295 CNS
A549 NSCLC = tested on: A549 NSCLC
SNB-19 CNS = tested on: SNB-19 CNS
U251 CNS = tested on: U251 CNS
SF-268 CNS = tested on: SF-268 CNS
NCI-H522 lung = tested on: NCI-H522 lung
MCF7 breast = tested on: MCF7 breast
MDA-MB-435 = tested on: MDA-MB-435
HT29 colon = tested on: HT29 colon
MDA-N = tested on: MDA-N
HOP-92 NSCLC = tested on: HOP-92 NSCLC
OVCAR-4 ovarian = tested on: OVCAR-4 ovarian
OVCAR-8 ovarian = tested on: OVCAR-8 ovarian
UACC-257 melanoma = tested on: UACC-257 melanoma
SN12C renal = tested on: SN12C renal
SR leukemia = tested on: SR leukemia
HCT-116 colon = tested on: HCT-116 colon
PC-3 prostate = tested on: PC-3 prostate
HL-60(TB) leukemia = tested on: HL-60(TB) leukemia
SK-MEL-2 melanoma = tested on: SK-MEL-2 melanoma
DU-145 prostate = tested on: DU-145 prostate
SW-620 colon = tested on: SW-620 colon
BT-549 breast = tested on: BT-549 breast
UO-31 renal = tested on: UO-31 renal
TK-10 renal = tested on: TK-10 renal
SK-MEL-28 melanoma = tested on: SK-MEL-28 melanoma
SF-539 CNS = tested on: SF-539 CNS
NCI-H460 lung = tested on: NCI-H460 lung
NCI-H23 lung = tested on: NCI-H23 lung
SNB-75 CNS = tested on: SNB-75 CNS
CCRF-CEM leukemia = tested on: CCRF-CEM leukemia
CAKI-1 renal = tested on: CAKI-1 renal
KM12 colon = tested on: KM12 colon
EKVX NSCLC = tested on: EKVX NSCLC
MDA-MB-231 breast = tested on: MDA-MB-231 breast
HCC-2998 colon = tested on: HCC-2998 colon
M14 melanoma = tested on: M14 melanoma
MOLT-4 leukemia = tested on: MOLT-4 leukemia
HCT-15 colon = tested on: HCT-15 colon
HS 578T breast = tested on: HS 578T breast
NCI-H226 lung = tested on: NCI-H226 lung
OVCAR-5 ovarian = tested on: OVCAR-5 ovarian

## COc1ccc(C2c3c(-c4ccccc4)nn(-c4ccccc4)c3Oc3ncn4nc(CC#N)nc4c32)cc1OC (configuration not stated)
K-562 leukemia
  TGI: > 100 µM
ACHN renal
  TGI: > 100 µM and 16.1 µM
A498 renal
  GI50: > 100 µM and 10.8 µM
  TGI: > 100 µM and 31.3 µM
SK-MEL-5 melanoma
  TGI: > 100 µM
T-47D breast
  TGI: > 54 µM
OVCAR-3 ovarian
  GI50: 75.4 µM and 10.3 µM
  TGI: > 100 µM
NCI/ADR-RES ovarian
  GI50: 26.2 µM and 3.6 µM
  TGI: 67.5 µM and > 45.4 µM
IGROV1 ovarian
  GI50: 16.8 µM and 5.81 µM
  TGI: 41.7 µM and > 47 µM
SK-OV-3 ovarian
  TGI: > 100 µM and 17.9 µM
LOX IMVI melanoma
  GI50: 15.7 µM and 3.63 µM
  TGI: 35.8 µM and 26.3 µM
RPMI-8226 leukemia
  GI50: > 100 µM and 20.9 µM
  TGI: > 100 µM
786-0 renal
  GI50: 8.4 µM and 2.09 µM
  TGI: 20.7 µM and 5.51 µM
COLO 205 colon
  GI50: > 100 µM
  TGI: > 100 µM
SF-295 CNS
  TGI: > 100 µM
A549 NSCLC
  GI50: > 100 µM and 13.7 µM
  TGI: > 100 µM and 68.1 µM
SNB-19 CNS
  GI50: 23.6 µM and 4.62 µM
  TGI: 73.7 µM and 33.7 µM
U251 CNS
  GI50: 23.5 µM and 3.62 µM
  TGI: 63.8 µM and 16.7 µM
SF-268 CNS
  GI50: 16.6 µM and 3.29 µM
  TGI: 42.5 µM and > 36.1 µM
NCI-H522 lung
  GI50: 40.2 µM and 4.62 µM
  TGI: > 100 µM and 15.7 µM
MCF7 breast
  GI50: 36.5 µM and 99.4 µM
  TGI: > 100 µM
MDA-MB-435
  GI50: > 100 µM
  TGI: > 100 µM
HT29 colon
  GI50: 99.9 µM and 14.8 µM
  TGI: > 100 µM
MDA-N
  GI50: > 100 µM and 16.2 µM
  TGI: > 100 µM
HOP-92 NSCLC
  GI50: 17.6 µM and 1.96 µM
OVCAR-4 ovarian
  TGI: 65.9 µM and 7.38 µM
OVCAR-8 ovarian
  TGI: > 100 µM
UACC-257 melanoma
  TGI: > 100 µM and 40.4 µM
SN12C renal
  TGI: 44.5 µM and > 41.9 µM
SR leukemia
  TGI: 33 µM
HCT-116 colon
  GI50: 40.7 µM and 9.55 µM
  TGI: > 100 µM
PC-3 prostate
  GI50: 32.6 µM and 12.3 µM
  TGI: > 100 µM and 49.1 µM
HL-60(TB) leukemia
  GI50: 30.4 µM and > 100 µM
  TGI: > 100 µM
SK-MEL-2 melanoma
  TGI: > 100 µM and 47.3 µM
DU-145 prostate
  TGI: > 100 µM
SW-620 colon
  GI50: 24.2 µM and > 82.3 µM
  TGI: > 100 µM
BT-549 breast
  GI50: 19.9 µM and 8.82 µM
  TGI: 59.2 µM and > 41.6 µM
UO-31 renal
  GI50: > 100 µM
  TGI: > 100 µM
TK-10 renal
  GI50: 27.8 µM and 3.31 µM
  TGI: > 100 µM and 14.6 µM
SK-MEL-28 melanoma
  TGI: > 100 µM
SF-539 CNS
  GI50: 19.2 µM and 2.49 µM
  TGI: 36.9 µM and > 27.6 µM
NCI-H460 lung
  TGI: > 100 µM and 46.7 µM
NCI-H23 lung
  GI50: 47.2 µM and 19.5 µM
  TGI: > 100 µM
SNB-75 CNS
  TGI: > 100 µM and 12.2 µM
CCRF-CEM leukemia
  GI50: 28.6 µM and > 100 µM
  TGI: > 100 µM
CAKI-1 renal
  TGI: > 100 µM and 13.8 µM
KM12 colon
  GI50: 78.2 µM and > 22.1 µM
  TGI: > 100 µM
EKVX NSCLC
  TGI: > 76.3 µM
MDA-MB-231 breast
  GI50: 9.03 µM and 1.77 µM
  TGI: 22.8 µM and 4.68 µM
HCC-2998 colon
  GI50: > 100 µM and 22.6 µM
  TGI: > 100 µM
M14 melanoma
  GI50: 55.6 µM and 6.33 µM
  TGI: > 100 µM and 13.3 µM
MOLT-4 leukemia
  TGI: > 100 µM
HCT-15 colon
  TGI: > 100 µM
HS 578T breast
  TGI: 59.1 µM and 6.86 µM
NCI-H226 lung
  GI50: 15.9 µM and 2.09 µM
  TGI: 39 µM and 6.28 µM
OVCAR-5 ovarian
  TGI: > 100 µM and 13.8 µM
